Measured values from PMC4287680, “Targeting GLP-1 receptors for repeated magnetic resonance imaging differentiates graded losses of pancreatic beta cells in mice” (Diabetologia, 2014).

Tested on: pancreas of RIP-DTr mice
Experiment: Total pancreas insulin content (acid-ethanol extraction, ELISA) after DT
Format: in vivo
Source text: Rat insulin promoter-diphtheria toxin receptor (RIP-DTr) mice were generated as reported. Briefly, the transgene containing an insulin promoter and the diphtheria toxin (DT) receptor coding sequence (RIP-DTr) was targeted to the Hprt locus of the X chromosome. Thus, in this model, DT administration leads to a parallel loss of insulin content and beta cells, which is partially due to the random X inactivation (on average 50%) in hemizygous female mice and nearly complete ablation in male mice.
To evaluate the total insulin content of the pancreas, whole glands were carefully dissected and extracted in acid-ethanol for 24 h, as reported. Pancreas insulin content was evaluated using a rodent insulin ELISA kit (Mercodia, Uppsala, Sweden) according to the manufacturer’s instructions.
Three-to-four-months-old male and female mice of the RIP-DTr strain [33, 36] were tested before and after DT administration. Mice were initially imaged before the injection of a probe to obtain a baseline T2 value (ESM Fig. 2). […] One week after this first imaging session, the same mice were given three intraperitoneal injections of 125 ng DT (injections administered on days 7, 9 and 11; ESM Fig. 2) and were monitored for non-fasting blood glucose by measuring tail-vein blood samples with a glucose meter. […]

## Diphtheria toxin [DT]
Female RIP-DTr mice, up to 3 months after DT administration (3 × 125 ng i.p.)
  Pancreas insulin content after DT, female mice (average): 63 % of the control levels
Male RIP-DTr mice after DT administration (3 × 125 ng i.p.)
  Pancreas insulin content after DT, male mice: 0.4 % of control levels
